The supplement of paper PMC4862054

What was measured:
Details in all cases: incubation time: 72 h
MFM-223 [1] = assay: normalised viability (% of control), CellTiter-Blue; higher = more viable cells (about 100 = DMSO control)
Outline: (§1)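 Each entry is normalised viability at a single listed concentration within a series. It comes from breast cancer cell lines incubated 72 h with compound in 384-well plates, then measured with CellTiter-Blue fluorescence at 560/590 nm. Every plate was normalised between vehicle (100) and a positive kill control (0).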

MDA-MB-436 [2] = assay: as above
Outline: as §1

MDA-MB-231 [3] = assay: as above
Outline: as §1

HCC1143 = assay: drug sensitivity score (DSS), CellTiter-Glo (DSS (AUC-based score)); higher = stronger drug effect (viability inhibition or cytotoxicity); extreme values may be limits of the assay
Outline: (§2)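 The drug sensitivity score was computed from the area under the fitted dose-response curve. Breast cancer cell lines in 20 µl suspension went into 384-well plates holding compound at 5 concentrations (10-fold steps over a 10,000-fold, compound-specific range) for 72 h of incubation. CellTox Green fluorescence (485/520 nm) was read before CellTiter-Glo luminescence, the latter after 10 min at room temperature, and each plate was normalised to 0.1 % DMSO and a positive kill control.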

MCF-10A = assay: as above
Outline: as §2

HDQ-P1 = assay: as above
Outline: as §2

MFM-223 [4] = assay: as above
Outline: as §2

CAL-148 [5] = assay: as above
Outline: as §2

CAL-51 = assay: as above
Outline: as §2

MDA-MB-436 [6] = assay: as above
Outline: as §2

DU-4475 = assay: as above
Outline: as §2

MDA-MB-231 [7] = assay: as above
Outline: as §2

SK-BR-3 = assay: as above
Outline: as §2

MDA-MB-468 = assay: as above
Outline: as §2

HCC1937 = assay: as above
Outline: as §2

CAL-120 = assay: as above
Outline: as §2

Hs578T = assay: as above
Outline: as §2

MDA-MB-453 = assay: as above
Outline: as §2

CAL-85-1 = assay: as above
Outline: as §2

HCC1599 [8] = assay: as above
Outline: as §2

BT-549 = assay: as above
Outline: as §2

BT-474 [9] = assay: as above
Outline: as §2

CAL-148 [10] = assay: drug sensitivity score (DSS), CellTox Green (DSS (AUC-based score)); higher = stronger drug effect (viability inhibition or cytotoxicity); extreme values may be limits of the assay
Outline: as §2

HCC1599 [11] = assay: as above
Outline: as §2

BT-474 [12] = assay: as above
Outline: as §2

Compound	normalised viability (MFM-223 [1]; 10 nM) [%]	normalised viability (MFM-223 [1]; 1000 nM) [%]	normalised viability (MFM-223 [1]; 10000 nM) [%]	normalised viability (MDA-MB-436 [2]; 10 nM) [%]	normalised viability (MDA-MB-436 [2]; 1000 nM) [%]	normalised viability (MDA-MB-436 [2]; 10000 nM) [%]	normalised viability (MDA-MB-231 [3]; 10 nM) [%]	normalised viability (MDA-MB-231 [3]; 1000 nM) [%]	normalised viability (MDA-MB-231 [3]; 10000 nM) [%]	drug sensitivity score (HCC1143)	drug sensitivity score (MCF-10A)	drug sensitivity score (HDQ-P1)	drug sensitivity score (MFM-223 [4])	drug sensitivity score (CAL-148 [5])	drug sensitivity score (CAL-51)	drug sensitivity score (MDA-MB-436 [6])	drug sensitivity score (DU-4475)	drug sensitivity score (MDA-MB-231 [7])	drug sensitivity score (SK-BR-3)	drug sensitivity score (MDA-MB-468)	drug sensitivity score (HCC1937)	drug sensitivity score (CAL-120)	drug sensitivity score (Hs578T)	drug sensitivity score (MDA-MB-453)	drug sensitivity score (CAL-85-1)	drug sensitivity score (HCC1599 [8])	drug sensitivity score (BT-549)	drug sensitivity score (BT-474 [9])	drug sensitivity score (CAL-148 [10])	drug sensitivity score (HCC1599 [11])	drug sensitivity score (BT-474 [12])	normalised viability (MFM-223 [1]; 1 nM) [%]	normalised viability (MFM-223 [1]; 100 nM) [%]	normalised viability (MDA-MB-436 [2]; 1 nM) [%]	normalised viability (MDA-MB-436 [2]; 100 nM) [%]	normalised viability (MDA-MB-231 [3]; 1 nM) [%]	normalised viability (MDA-MB-231 [3]; 100 nM) [%]
C=C(c1ccc(C(=O)O)cc1)c1cc2c(cc1C)C(C)(C)CCC2(C)C [Bexarotene]	101	103	96.5	90.1	97.2	81	91.2	86.5	105	0	0	0	0	0	0	0	0	0	2.44	0	0	0	0	0	0	9	0	1.51	0	0	0						
CN(C)/N=N/c1[nH]cnc1C(N)=O [Dacarbazine]	90.4	89.3	104	100	78.7	93.8	101	89.3	99	0	0	0	0	0	0	0	0	0	0	0	0	0.483	0	0	0	0	0	0	2.9	0	0						
CCC1(c2ccc(N)cc2)CCC(=O)NC1=O (configuration not stated) [Aminoglutethimide]	97	102	97.5	95.9	112	91.6	86.9	90.2	106	0	0	0	0	0	0	0	0	0	0	0	0	0	0	0	0	0	0	0	0	0	0						
CS(=O)(=O)c1ccc(C2=C(c3ccccc3)C(=O)OC2)cc1 [Rofecoxib]										0	0	0	0	0	0.464	0	0	0	0	0	0	0	0	0	0	0	0	0	0	0	1.58						
CCN(CCCOc1ccc2c(Nc3cc(CC(=O)Nc4cccc(F)c4)[nH]n3)ncnc2c1)CCOP(=O)(O)O [Barasertib]		85.8			88.1			81.1																								103	95.7	126	56.5	110	75.3
CC(=O)Nc1ccc(C(=O)Nc2ccccc2N)cc1 [CI-994]		102			94.8			115																								107	109	98.7	97.2	104	101
C[C@@H](Oc1cc(-c2cnn(C3CCNCC3)c2)cnc1N)c1c(Cl)ccc(F)c1Cl [Crizotinib]	75.5	73	34.1	71.3	17.1	8.24	89.8	63.5	0.88	0	0	0	0	0	0	0	0	0	0	0.0242	0	0	0	0	0	0	0	0	0	0	0						
O=C(CCCCCCC(=O)Nc1ccc([C@H]2O[C@@H](CSc3nc(-c4ccccc4)c(-c4ccccc4)o3)C[C@@H](c3ccc(CO)cc3)O2)cc1)NO [Tubacin]										3.15	0	2.55	4.83	0.986	5.04	0	1.66	6.83	1.97	8.6	3.76	4.36	0	8.42	7.14	4.67	2.95	4.89	0	0	1.77						
COc1cc2ncnc(Nc3ccc(F)c(Cl)c3)c2cc1NC(=O)/C=C/CN1CCCCC1 [Dacomitinib]										0	16.9	8.45	0	0	0	0.907	0	0.139	14.6	3.31	0	0	0	5.43	8.62	0	1.11	0.458	0	0	6.2						
O=C(O)c1ccc(-c2c[nH]c3ncc(-c4ccccc4)cc23)cc1C1CCCC1										0	0	0	0	0	0	0	0	0	2.12	0	0	0	0.128	0	0	0	0	0.507	0	0	0						
Cc1ccc(C(=O)Nc2ccc(CN3CCN(C)CC3)c(C(F)(F)F)c2)cc1C#Cc1cnc2cccnn12 [Ponatinib]		35.7			90.5			16.9																								100		106	91.5	98.8	82.6
NCC(=O)CCC(=O)O [Aminolevulinic acid]	92.2	91.3	87.3	99.1	102	96.5	107	93.2	111																												
CCCCCCCCCCCCCCCCCCOP(=O)([O-])OC1CC[N+](C)(C)CC1 [Perifosine]										0	0.579	0	0	0	0	0.0848	0	0	0	0	0.853	0	0	0	0	0	0	0	0	0	0						
N#CCNC(=O)c1ccc(-c2ccnc(Nc3ccc(N4CCOCC4)cc3)n2)cc1 [Momelotinib]										1.42	5.18	0	0	0	0	0	0	4.43	2.75	5.4	0	5.07	4.38	0	4.3	0	6.02	4.25	0	0	0						
NC(=O)Nc1cc(-c2cccc(F)c2)sc1C(=O)N[C@H]1CCCNC1 [AZD7762]										4.03	3.48	3.06	0	0	1.07	5.18	0	5.67	3.78	1.93	2.78	2.9	3.86	5.03	9.45	6.96	8.18	4.13	0	0	0						
NC(=O)Nc1cc(-c2cccc(F)c2)sc1C(=O)N[C@H]1CCCNC1 [AZD 7762]		51.7			18.5			31.2																								101	104	99	83.7	112	102
